# Measurements taken from US9889170B1, “Synthesis of nanoparticles using Balanites aegyptiaca” (KING SAUD UNIVERSITY, priority 2016, dated 2018).
# How the values were obtained:
# Assay in all cases: Agar well diffusion assay
# Type in all cases: cell-based
# [1] = tested on: Escherichia coli (RCMB 010052); settings: 100 μl per well, mean ± SD
# Experimental: (§1) Antimicrobial activity of nanoparticles was determined using the agar well diffusion assay method as described by Holder and Boyce, 1994. Three bacterial (two gram positive and one gram negative) and […], namely, Bacillis suhtilis (RCMB 010067), […] pneumoniae (RCMB 010011), Escherichia coli (RCMB 010052), and Aspergillus fumigatus (RCMB 02568). The tested organisms were sub-cultured on nutrient agar medium (Oxoid laboratories, UK) for bacteria and Sabouraud dextrose agar (Oxoid laboratories, UK) for fungi. Ampicillin and Gentamicin were used as positive control for gram positive and gram negative bacteria, respectively, while Amphotericin B was used for fungi. The plates were done in triplicates. Bacterial cultures were incubated at 37° C. for 24 h, while the fungal cultures were incubated at 25-30° C. for 3-7 days. Antimicrobial activity was determined by measuring the zone of inhibition [A. Agwa, (2000)]. The antimicrobial effect of the B. aegyptiaca nanoparticles was evaluated against different gram positive and gram negative bacteria as well as fungi. The results of the antimicrobial effects of the synthesized nanoparticles are compiled in the Tables below.
# [2] = tested on: Pseudomonas aeruginosa (RCMB 010043); settings: 100 μl per well, mean ± SD
# [3] = tested on: Salmonella typhimurium (RCMB 010072); settings: 100 μl per well, mean ± SD
# [4] = tested on: Klebsiella pneumoniae (RCMB 000111); settings: 100 μl per well, mean ± SD
# [5] = tested on: Escherichia coli (RCMB 010054); settings: samples at 100 μl, mean ± SD
# [6] = tested on: Geotricum candidum (RCMB 05097); settings: 100 μl per well, mean ± SD
# [7] = tested on: Aspergillus fumigatus (RCMB 02567); settings: samples at 100 μl, mean ± SD
# Experimental: as §1
# [8] = tested on: Aspergillus fumigatus (RCMB 02568); settings: 100 μl per well, mean ± SD
# Experimental: as §1
# [9] = tested on: Staphylococcus aureus (RCMB 010028); settings: 100 μl per well, mean ± SD
# [10] = tested on: Bacillis subtilis (RCMB 010067); settings: 100 μl per well, mean ± SD
# Experimental: as §1
# [11] = tested on: Bacillis subtilis (RCMB 010068); settings: samples at 100 μl, mean ± SD
# Experimental: as §1
# [12] = tested on: Streptococcus pneumoniae (RCMB 010011); settings: samples at 100 μl, mean ± SD
# Experimental: as §1
compound,measurement,setting,value
Gentamicin,Mean zone of inhibition beyond well diameter (6 mm),[1],22.3 ± 0.18 mm
same,Mean zone of inhibition beyond well diameter (6 mm),[2],17.3 ± 0.15 mm
same,Mean zone of inhibition beyond well diameter (6 mm),[3],25.4 ± 0.18 mm
same,Mean zone of inhibition beyond well diameter (6 mm),[4],20.2 ± 0.25 mm
same,Diameter of the inhibition zone beyond the well diameter of 6 mm,[5],20.3 ± 0.58 mm
C[C@@H]1[C@H](O)[C@@H](C)/C=C/C=C/C=C/C=C/C=C/C=C/C=C/[C@H](O[C@@H]2O[C@H](C)[C@@H](O)[C@H](N)[C@@H]2O)C[C@@H]2O[C@](O)(C[C@@H](O)C[C@@H](O)[C@H](O)CC[C@@H](O)C[C@@H](O)CC(=O)O[C@H]1C)C[C@H](O)[C@H]2C(=O)O [Amphotericin B],Mean zone of inhibition beyond well diameter (6 mm),[6],28.7 ± 0.22 mm
same,Diameter of the inhibition zone beyond the well diameter of 6 mm,[7],21.7 ± 1.5 mm
same,Mean zone of inhibition beyond well diameter (6 mm),[8],23.7 ± 0.10 mm
CC1(C)S[C@@H]2[C@H](NC(=O)[C@H](N)c3ccccc3)C(=O)N2[C@H]1C(=O)O [Ampicillin],Mean zone of inhibition beyond well diameter (6 mm),[9],27.4 ± 0.18 mm
same,Mean zone of inhibition beyond well diameter (6 mm),[10],32.4 ± 0.10 mm
same,Diameter of the inhibition zone beyond the well diameter of 6 mm,[11],31.3 ± 1.5 mm
same,Diameter of the inhibition zone beyond the well diameter of 6 mm,[12],21.0 ± 1.0 mm
